Test results published in PubChem BioAssay (NCI).
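Each compound was tested at five concentrations against cells in 96-well plates for 48 hours. The concentration for 50% growth inhibition is given as GI50. TGI denotes the concentration required for complete inhibition of growth.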

Columns and labels:
Assay in all cases: inhibition of tumour cell growth, NCI panel, 48 h
[1] = test system: 786-0 renal
[2] = test system: A498 renal
[3] = test system: A549 NSCLC
[4] = test system: ACHN renal
[5] = test system: BT-549 breast
[6] = test system: CAKI-1 renal
[7] = test system: CCRF-CEM leukemia
[8] = test system: COLO 205 colon
[9] = test system: DU-145 prostate
[10] = test system: EKVX NSCLC
[11] = test system: HCC-2998 colon
[12] = test system: HCT-116 colon
[13] = test system: HCT-15 colon
[14] = test system: HL-60(TB) leukemia
[15] = test system: HOP-62 NSCLC
[16] = test system: HS 578T breast
[17] = test system: HT29 colon
[18] = test system: IGROV1 ovarian
[19] = test system: K-562 leukemia
[20] = test system: KM12 colon
[21] = test system: LOX IMVI melanoma
[22] = test system: M14 melanoma
[23] = test system: MALME-3M melanoma
[24] = test system: MCF7 breast
[25] = test system: MDA-MB-231 breast
[26] = test system: MDA-MB-435
[27] = test system: MOLT-4 leukemia
[28] = test system: NCI-H226 lung
[29] = test system: NCI-H23 lung
[30] = test system: NCI-H460 lung
[31] = test system: NCI-H522 lung
[32] = test system: NCI/ADR-RES ovarian
[33] = test system: OVCAR-3 ovarian
[34] = test system: OVCAR-4 ovarian
[35] = test system: OVCAR-5 ovarian
[36] = test system: OVCAR-8 ovarian
[37] = test system: PC-3 prostate
[38] = test system: RPMI-8226 leukemia
[39] = test system: RXF 393 renal
[40] = test system: SF-268 CNS
[41] = test system: SF-295 CNS
[42] = test system: SF-539 CNS
[43] = test system: SK-MEL-2 melanoma
[44] = test system: SK-MEL-28 melanoma
[45] = test system: SK-MEL-5 melanoma
[46] = test system: SK-OV-3 ovarian
[47] = test system: SN12C renal
[48] = test system: SNB-19 CNS
[49] = test system: SNB-75 CNS
[50] = test system: SR leukemia
[51] = test system: SW-620 colon
[52] = test system: T-47D breast
[53] = test system: TK-10 renal
[54] = test system: U251 CNS
[55] = test system: UACC-257 melanoma
[56] = test system: UACC-62 melanoma
[57] = test system: UO-31 renal

O=C1c2ccccc2S(=O)(=O)N1CSC(=S)N1CCOCC1
GI50 [1]: > 100 µM
TGI [1]: > 100 µM
GI50 [2]: > 100 µM
TGI [2]: > 100 µM
GI50 [3]: > 100 µM
TGI [3]: > 100 µM
GI50 [4]: > 100 µM
TGI [4]: > 100 µM
GI50 [5]: > 100 µM
TGI [5]: > 100 µM
GI50 [6]: > 100 µM
TGI [6]: > 100 µM
GI50 [7]: 7.9 µM
TGI [7]: 36.1 µM
GI50 [8]: 62.4 µM
TGI [8]: > 100 µM
GI50 [9]: > 100 µM
TGI [9]: > 100 µM
GI50 [10]: > 100 µM
TGI [10]: > 100 µM
GI50 [11]: > 100 µM
TGI [11]: > 100 µM
GI50 [12]: > 100 µM
TGI [12]: > 100 µM
GI50 [13]: > 100 µM
TGI [13]: > 100 µM
GI50 [14]: 4.84 µM
TGI [14]: 49.9 µM
GI50 [15]: > 100 µM
TGI [15]: > 100 µM
GI50 [16]: > 100 µM
TGI [16]: > 100 µM
GI50 [17]: 26.1 µM
TGI [17]: > 100 µM
GI50 [18]: > 100 µM
TGI [18]: > 100 µM
GI50 [19]: > 100 µM
TGI [19]: > 100 µM
GI50 [20]: > 100 µM
TGI [20]: > 100 µM
GI50 [21]: > 100 µM
TGI [21]: > 100 µM
GI50 [22]: 31.1 µM
TGI [22]: 89.6 µM
GI50 [23]: > 100 µM
TGI [23]: > 100 µM
GI50 [24]: 49 µM
TGI [24]: > 100 µM
GI50 [25]: > 100 µM
TGI [25]: > 100 µM
GI50 [26]: > 100 µM
TGI [26]: > 100 µM
GI50 [27]: 19 µM
TGI [27]: > 100 µM
GI50 [28]: > 100 µM
TGI [28]: > 100 µM
GI50 [29]: > 100 µM
TGI [29]: > 100 µM
GI50 [30]: 70.1 µM
TGI [30]: > 100 µM
GI50 [31]: 24.8 µM
TGI [31]: > 100 µM
GI50 [32]: > 100 µM
TGI [32]: > 100 µM
GI50 [33]: > 100 µM
TGI [33]: > 100 µM
GI50 [34]: > 100 µM
TGI [34]: > 100 µM
GI50 [35]: > 100 µM
TGI [35]: > 100 µM
GI50 [36]: > 100 µM
TGI [36]: > 100 µM
GI50 [37]: 38.3 µM
TGI [37]: > 100 µM
GI50 [38]: 15.8 µM
TGI [38]: 51.3 µM
GI50 [39]: > 100 µM
TGI [39]: > 100 µM
GI50 [40]: > 100 µM
TGI [40]: > 100 µM
GI50 [41]: > 100 µM
TGI [41]: > 100 µM
GI50 [42]: > 100 µM
TGI [42]: > 100 µM
GI50 [43]: > 100 µM
TGI [43]: > 100 µM
GI50 [44]: 61.8 µM
TGI [44]: > 100 µM
GI50 [45]: 58.1 µM
TGI [45]: > 100 µM
GI50 [46]: > 100 µM
TGI [46]: > 100 µM
GI50 [47]: > 100 µM
TGI [47]: > 100 µM
GI50 [48]: > 100 µM
TGI [48]: > 100 µM
GI50 [49]: 65.4 µM
TGI [49]: > 100 µM
GI50 [50]: 17.4 µM
TGI [50]: 47 µM
GI50 [51]: 69.1 µM
TGI [51]: > 100 µM
GI50 [52]: > 100 µM
TGI [52]: > 100 µM
GI50 [53]: > 100 µM
TGI [53]: > 100 µM
GI50 [54]: > 100 µM
TGI [54]: > 100 µM
GI50 [55]: > 100 µM
TGI [55]: > 100 µM
GI50 [56]: > 100 µM
TGI [56]: > 100 µM
GI50 [57]: > 100 µM
TGI [57]: > 100 µM
